Data published in publication PMC11946789, “Two Amino Acid Substitutions Improve the Pharmacological Profile of the Snake Venom Peptide Mambalgin” (Toxins, 2025).
Read-outs that look alike come from different tables or passages of the source. Where no end group is shown, it is not given here.

What was measured:
rASIC1b = settings: literature, cited from earlier work
rASIC1a/3 = settings: reported in literature; cited from earlier work
[1] = biological target: rat ASIC1a channel, homomeric (rat) (UniProt P55926)
[2] = biological target: rat ASIC1a channel, homomeric (rat) (UniProt P55926); remark: listed apart in the source
[3] = biological target: rat ASIC1b channel, homomeric (rat) (UniProt P55926)
Sequence of rat ASIC1b channel, homomeric (rat) (P55926 other isoform, or with tags, fused parts or gaps): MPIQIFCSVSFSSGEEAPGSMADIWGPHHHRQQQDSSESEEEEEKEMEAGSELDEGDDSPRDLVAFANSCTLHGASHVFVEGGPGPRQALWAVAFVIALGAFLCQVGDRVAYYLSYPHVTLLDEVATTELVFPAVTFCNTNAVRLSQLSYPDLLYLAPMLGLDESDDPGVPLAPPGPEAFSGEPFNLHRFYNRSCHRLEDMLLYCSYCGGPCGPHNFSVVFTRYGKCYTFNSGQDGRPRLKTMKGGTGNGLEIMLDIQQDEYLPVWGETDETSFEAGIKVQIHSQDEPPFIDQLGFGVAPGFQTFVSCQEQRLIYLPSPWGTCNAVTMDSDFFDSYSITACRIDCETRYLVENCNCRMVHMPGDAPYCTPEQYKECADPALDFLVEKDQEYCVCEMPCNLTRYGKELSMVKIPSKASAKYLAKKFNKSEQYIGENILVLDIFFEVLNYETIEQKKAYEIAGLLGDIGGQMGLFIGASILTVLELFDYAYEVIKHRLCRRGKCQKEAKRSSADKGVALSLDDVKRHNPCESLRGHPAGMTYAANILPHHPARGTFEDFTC

Sequence of rat ASIC1a channel, homomeric (rat) (P55926 whole entry): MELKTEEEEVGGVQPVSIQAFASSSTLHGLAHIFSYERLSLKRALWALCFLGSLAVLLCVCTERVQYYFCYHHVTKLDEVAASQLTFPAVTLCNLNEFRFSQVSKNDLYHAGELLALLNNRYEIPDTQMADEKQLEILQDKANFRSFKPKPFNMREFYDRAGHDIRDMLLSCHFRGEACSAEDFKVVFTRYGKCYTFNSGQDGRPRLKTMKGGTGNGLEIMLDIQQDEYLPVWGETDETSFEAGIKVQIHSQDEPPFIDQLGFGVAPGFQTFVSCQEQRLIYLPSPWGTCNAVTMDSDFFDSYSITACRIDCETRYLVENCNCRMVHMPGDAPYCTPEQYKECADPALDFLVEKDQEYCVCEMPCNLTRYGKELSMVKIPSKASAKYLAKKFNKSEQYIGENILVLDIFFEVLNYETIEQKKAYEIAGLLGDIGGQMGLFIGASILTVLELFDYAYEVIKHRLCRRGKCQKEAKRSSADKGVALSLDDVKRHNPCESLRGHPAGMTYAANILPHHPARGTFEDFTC

| Substance | IC50 (rASIC1b; ref 21) [nM] | IC50 (rASIC1b; ref 27) [nM] | effect on rASIC1a/3 (rASIC1a/3) | IC50 of inhibition of pH 5.5-evoked currents of homomeric rASIC1a in Xenopus oocytes (TEVC; peptide applied for 30 s at pH 7.4) [1] [nM] | IC50 of inhibition of pH 6.7-evoked currents of homomeric rASIC1a in Xenopus oocytes (TEVC; peptide applied for 30 s at pH 7.4) [2] [nM] | IC50 of inhibition of pH 5.5-evoked currents of homomeric rASIC1b in Xenopus oocytes (TEVC; peptide applied for 30 s at pH 7.4) [3] [nM] |
| --- | --- | --- | --- | --- | --- | --- |
| Mamb-1 (LKCYQHGKVVTCHRDMKFCYHNTGMPFRNLKLILQGCSSSCSETENNKCCSTDRCNK; ends and bridges not checked; cysteine pairing not given here; UniProt P0DKR6 22-78, looked up) | 192 | 39 | no effect |  |  |  |
| mambalgin (Mamb), wild-type peptide (from UniProt P0DKS3 1-57) |  |  |  | 110 | 86 | 119 |
